The text below walks through data of US4866055A, “Cephalosporin derivatives and their crystalline derivatives” (Mochida Pharmaceutical Co., Ltd., priority 1986, dated 1989).

Structures are written as SMILES. Converted amounts (≈) assume the structure as drawn. Read-outs that look alike come from different tables or passages of the source. Bounds are passed on as bounds.

For data set [1], the system named is Escherichia coli 67. Put plainly: Protection against systemic infection in mice. The settings on record: iv, 168 h, i.p. infection, i.v. compound 1 hour after infection, survival at 1 week. In kind it is in vivo, ICR mice. The protocol:
(§1) Protection ability against systemic infection was determined as follows. An aqueous suspension of test bacteria was intraperitoneally injected into 10 four week old ICR mice. One hour after the infection, test compounds were intravenously administered. The number of surviving mice was counted 1 week after injection to determine the dose at which 50% of the test animals were alive (ED50 : mg/kg).

For data set [2], the system named is Pseudomonas aeruginosa 13. Put plainly: Protection against systemic infection in mice. The settings on record: for ED50: 168 h. In kind it is in vivo, ICR mice. The protocol: as §1
The subject of data set [3] is Serratia marcescens 274. Put plainly: Protection against systemic infection in mice. It is filed as in vivo, ICR mice. The settings on record: 168 h. Here is the method:
as §1

In data set [4] the test system is Klebsiella pneumoniae IFO 3317. Nature of the data set: Protection against systemic infection in mice. It is filed as in vivo, ICR mice. The settings on record: for ED50: IFO3317, iv, 168 h. The protocol: as §1
Data set [5] relates to Staphylococcus aureus 242. Put plainly: Protection against systemic infection in mice. It is filed as in vivo, ICR mice. The settings on record: 168 h. Here is the method:
as §1

Data set [6] has as its system Proteus mirabilis IFO 3849. Nature of the data set: Protection against systemic infection in mice. In kind it is in vivo, ICR mice. The settings on record: IFO3849, iv, 168 h. The protocol:
as §1

For data set [7], the system named is Serratia marcescens IFO 3759. Nature of the data set: Antibacterial activity in vitro, agar plate dilution method (MIC). In kind it is cell-based. Here is the method:
(§2) Antibacterial activity in vitro was determined in accordance with the agar plate dilution method.
(§3) A platinum loop each of test bacteria (10^6 cells/ml), cultured in Mueller Hinton broth, was inoculated on Mueller Hinton agar plates which contained test compounds at various concentrations. After cultivating at 37° C. for 20 hours, the minimum inhibitory concentration (MIC μg/ml) was determined.

The subject of data set [8] is Proteus morganii IFO 3848. The data set is described as above. In kind it is cell-based. The settings on record: Morganella morganii. The protocol: as §2, §3
For data set [9], the system named is Staphylococcus aureus Smith. The data set is described as above. The settings on record: 37° C., 20 hours, Mueller Hinton agar. In kind it is cell-based. The protocol: as §2, §3
Data set [10] has as its system Escherichia coli NIHJ JC 2. Described as above. The settings on record: NIHJJC2, 37° C., 20 hours, Mueller Hinton agar. It is filed as cell-based. Here is the method: as §2, §3
Data set [11] deals with Pseudomonas aeruginosa 13. The description is as above. In kind it is cell-based. The protocol: as §2, §3
Data set [12] concerns Klebsiella pneumoniae IFO 3317. The description is as above. In kind it is cell-based. The protocol: as §2, §3
The nature of data set [13]: Stability (storage). It is filed as physicochemical.
Data set [14] in a line: Acute toxicity, LD50 by the Probit method. The settings on record: in vivo, iv. Here is the method: Next, LD50 of representative examples of the compounds of the present invention is shown in Table 3 herein LD50 was determined in accordance with the Probit method.
Data set [15] in a line: Solubility. The settings on record: trisodium salt, amorphous solid; for parenteral use. It is filed as physicochemical.
Data set [16] concerns bacterial strains except Pseudomonas aeruginosa. Nature of the data set: Antibacterial activity in vitro, agar plate dilution method, all strains except Pseudomonas aeruginosa. In kind it is cell-based. The settings on record: Tables 1-a through 1-b. Here is the method: as §2, §3
The subject of data set [17] is experimental infection. Nature of the data set: Protection of animals from experimental infection (overall). The settings on record: Tables 2-a through 2-b, vs reference compound. It is filed as in vivo, ICR mice. Here is the method:
as §1

Where [18] appears, read: iv, Pseudomonas aeruginosa 13, i.p. infection, i.v. compound 1 hour after infection, survival at 1 week, read-out: ED50.
Where [19] appears, read: iv, Serratia marcescens 274, i.p. infection, i.v. compound 1 hour after infection, survival at 1 week, read-out: ED50.
[20] abbreviates: Klebsiella pneumoniae IFO 3317, i.p. infection, i.v. compound 1 hour after infection, survival at 1 week, read-out: ED50.
The mark [21] stands for this setting: iv, Staphylococcus aureus 242, i.p. infection, i.v. compound 1 hour after infection, survival at 1 week, read-out: ED50.
[22] abbreviates: Proteus mirabilis IFO 3849, i.p. infection, i.v. compound 1 hour after infection, survival at 1 week, read-out: ED50.
Where [23] appears, read: IFO3759, Serratia marcescens IFO 3759, 37° C., 20 hours, Mueller Hinton agar, read-out: MIC.
[24] abbreviates: IFO3848, Proteus morganii IFO 3848, 37° C., 20 hours, Mueller Hinton agar, read-out: MIC.
Setting [25] is: Pseudomonas aeruginosa 13, 37° C., 20 hours, Mueller Hinton agar, read-out: MIC.
Setting [26] is: IFO3317, Klebsiella pneumoniae IFO 3317, 37° C., 20 hours, Mueller Hinton agar, read-out: MIC.

The term ED50 denotes the dose that gives a 50% effect, or the effect in half of the subjects. As usually defined, the MIC is the lowest concentration that inhibits growth of the organism. Consider `CC(=O)Oc1cc(C(=O)O)c(CO/N=C(\C(=O)N[C@@H]2C(=O)N3C(C(=O)O)=C(CSc4cc(C)nc5nc(C(=O)O)nn45)CS[C@H]23)c2csc(N)n2)cc1O` [Reference compound, (6R,7R)-7-[2-(2-amino-4-thiazolyl)-2-[Z-[(4-acetoxy-2-carboxy-5-hydroxyphenyl)methy]oxyimino]acetamido]-3-[(2-caboxy-5-methyl-s-triazolo[1,5-a]pyrimidin-7-yl)thiomethyl]-8-oxo-5-thia-1-azabicyclo[4.2.0]oct-2-ene-2-carboxylicacid], for which the ED50 was 7.66 mg/kg in [1]; more than 500 mg/kg in [2] (setting [18]); 2.56 mg/kg in data set [3] (setting [19]); 3.58 mg/kg in [4] (setting [20]); 12.4 mg/kg in [5] (setting [21]); 20.1 mg/kg in data set [6] (setting [22]). Moreover, the MIC in [7] (setting [23]) is not above 0.05 µg/mL; in data set [8] (setting [24]), 0.2 µg/mL (≈ 0.25 µM); in data set [9], 1.56 µg/mL (≈ 1.95 µM); in data set [10], 0.39 µg/mL (≈ 0.488 µM); in data set [11] (setting [25]), 1.56 µg/mL (≈ 1.95 µM); in data set [12] (setting [26]) it was not above 0.05 µg/mL.
Consider `Cc1cc(SCC2=C(C(=O)O)N3C(=O)[C@@H](NC(=O)/C(=N\OCc4cc(O)c(O)cc4C(=O)O)c4csc(N)n4)[C@H]3SC2)n2nc(C(=O)O)nc2n1` [crystalline hydrated compound, crystalline hydrated (6R,7R)-7-[2-(2-amino-4-thiazol-yl)-2-[Z-[(2-carboxy-4,5-dihydroxyphenyl)methyl]oxyimino]acetamido]-3-[(2-carboxy-5-methyl-s-triazolo[1,5-a]pyrimidin-7-yl)thiomethyl]-8-oxo-5-thia-1-azabicyclo[4.2.0]oct-2-ene-2-carboxylic acid], for which the stability on storage entry in data set [13] (crystalline hydrate) is reported as “increased stability on storage”.
For orientation: LD50 means the dose at which mortality reaches 50%. The low end stands for a more toxic substance, the high end for a less toxic substance. Turning to `CC(C)(O/N=C(\C(=O)N[C@@H]1C(=O)N2C(C(=O)[O-])=C(C[n+]3ccccc3)CS[C@H]12)c1csc(N)n1)C(=O)O` [CAZ, Ceftazidime], the ED50 in data set [1] is 6.48 mg/kg; in data set [2] (Pseudomonas aeruginosa, 13, iv) it was 145 mg/kg; in data set [3] (Serratia marcescens, 274, iv), 3.62 mg/kg; in data set [4] (Klebsiella pneumoniae) it was 10.6 mg/kg; in data set [5] (Staphylococcus aureus, 242, iv), more than 100 mg/kg; in [6] (Proteus mirabilis) it was 4.36 mg/kg. This compound also displayed an LD50 in [14] of more than 4000 mg/kg. Further, the MIC is not above 0.05 µg/mL in data set [7] (Serratia marcescens, IFO3759, 20 h); 0.2 µg/mL (≈ 0.366 µM) in data set [8] (IFO3848, 20 h); 0.2 µg/mL (≈ 0.366 µM) in data set [10]; 1.56 µg/mL (≈ 2.85 µM) in [11] (Pseudomonas aeruginosa, 13, 20 h); not above 0.05 µg/mL in data set [12] (Klebsiella pneumoniae, IFO3317, 20 h).
As to `Cc1cc(SCC2=C(C(=O)[O-])N3C(=O)[C@@H](NC(=O)/C(=N\OCc4cc(O)c(O)cc4C(=O)[O-])c4csc(N)n4)[C@H]3SC2)n2nc(C(=O)[O-])nc2n1.[Na+].[Na+].[Na+]`, the stability result in [13] (as bulk materials or as parenteral preparations) is reported as “not necessarily sufficient”. Besides, the solubility result in data set [15] is “excellent solubility”.
For the compound `Cc1cc(SCC2=C(C(=O)O)N3C(=O)[C@@H](NC(=O)/C(=N\OCc4cc(O)c(O)cc4C(=O)O)c4csc(N)n4)[C@H]3SC2)n2nc(C(=O)O)nc2n1` [Compound 1, (6R,7R)-7-[2-(2-amino-4-thiazolyl)-2-[Z-[(2-carboxy-4,5-dihydroxyphenyl)methyl]oxyimino]acetamido]-3-[(2-carboxy-5-methyl-s-triazolo[1,5-a]pyrimidin-7-yl)thiomethyl]-8-oxo-5-thia-1-azabicyclo[4.2.0]-oct-2-ene-2-carboxylic acid], the “potency relative to the reference compound in vitro” value in data set [16] is reported as “about equipotent to the reference compound”. The ED50 in data set [1] was determined as 1.05 mg/kg; in [2] (setting [18]), 61.8 mg/kg; in [3] (setting [19]), 0.77 mg/kg; in data set [4] (setting [20]) it was 0.27 mg/kg; in data set [5] (setting [21]), 7.68 mg/kg; in data set [6] (setting [22]), 5.07 mg/kg. Besides, the “times as potent as the reference compound” value in [2] (infection with Pseudomonas aeruginosa, vs reference compound) was “more than 10 times”; in [4] (infection with Klebsiella pneumoniae, vs reference compound) it was “more than 10 times”; in [11] (MIC, Pseudomonas aeruginosa, vs reference compound), “more than 10 times”. The compound further returned an LD50 in data set [14] of more than 4000 mg/kg. Also, the MIC in data set [7] (setting [23]) was 0.1 µg/mL (≈ 0.132 µM); in data set [8] (setting [24]) it was 0.39 µg/mL (≈ 0.515 µM); in data set [9] it was 1.56 µg/mL (≈ 2.06 µM); in data set [10] it was 0.39 µg/mL (≈ 0.515 µM); in data set [11] (setting [25]), 0.1 µg/mL (≈ 0.132 µM); in data set [12] (setting [26]), not above 0.05 µg/mL. Further, the “times as potent as Ceftazidime” value in data set [11] (MIC, Pseudomonas aeruginosa, vs Ceftazidime) is “more than 10 times”. For the same compound, in data set [17], the “potency in protecting the animals from experimental infection relative to the reference compound” value is “evidently more potent than the reference compound”.
In the case of `Cn1nnnc1SCC1=C(C(=O)O)N2C(=O)[C@@H](NC(=O)[C@H](O)c3ccccc3)[C@H]2SC1` [CMD, Cefamandole], the ED50 in [5] (setting [21]) was 8.94 mg/kg.
